Test results from PMC7116137 (Molecular pharmacology, 2020).

Assays:
[1] = target: complex of dopamine D1-receptor and wild-type A1R (Homo sapiens, UniProt P21728+P30542); experiment: BRET between D1R-NLuc and eYFP-tagged A1-receptor in HEK293 cells; assay type: cell-based; conditions: incubation with ligand 10 μM, response estimated at saturation
wild-type A1R = target: T1, wild-type A1R (Homo sapiens, UniProt P30542); experiment: [35S]GTPγS binding to membranes of HEK293 cells; assay type: biochemical; conditions: agonist-stimulated, curve fit; wt A1R
T1 sequence (P30542 1-326): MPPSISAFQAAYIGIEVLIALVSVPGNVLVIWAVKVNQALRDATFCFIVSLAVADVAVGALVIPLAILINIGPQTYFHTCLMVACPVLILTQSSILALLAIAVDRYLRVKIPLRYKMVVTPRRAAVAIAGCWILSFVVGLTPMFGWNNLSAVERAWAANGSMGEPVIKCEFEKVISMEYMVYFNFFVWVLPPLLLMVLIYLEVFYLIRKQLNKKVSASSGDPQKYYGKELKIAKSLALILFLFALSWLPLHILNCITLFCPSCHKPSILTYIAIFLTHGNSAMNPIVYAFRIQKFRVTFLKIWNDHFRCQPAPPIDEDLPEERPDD

Sequence of complex of dopamine D1-receptor and wild-type A1R (P21728 whole entry, one chain of several): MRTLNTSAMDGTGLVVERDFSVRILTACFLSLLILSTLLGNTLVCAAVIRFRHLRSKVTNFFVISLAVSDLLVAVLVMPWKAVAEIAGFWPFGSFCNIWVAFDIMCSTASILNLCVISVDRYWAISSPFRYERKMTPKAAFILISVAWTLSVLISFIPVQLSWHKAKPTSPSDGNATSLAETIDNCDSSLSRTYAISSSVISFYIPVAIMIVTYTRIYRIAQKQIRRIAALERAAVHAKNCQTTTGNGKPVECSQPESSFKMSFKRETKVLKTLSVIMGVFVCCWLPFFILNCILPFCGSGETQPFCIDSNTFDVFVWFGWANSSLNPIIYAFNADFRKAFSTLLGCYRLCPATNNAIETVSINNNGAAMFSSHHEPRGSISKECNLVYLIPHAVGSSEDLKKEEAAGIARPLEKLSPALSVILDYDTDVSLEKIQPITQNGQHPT

Maximum BRET signal [1]: 218 ± 64 milli BRET
maximal [35S]GTPγS binding (95% confidence interval) (wild-type A1R): 91.5 to 101.3 fmol/mg
Structure (SMILES): OC[C@H]1O[C@@H](n2cnc3c(NC4CCCC4)ncnc32)[C@H](O)[C@@H]1O [CPA, N6-cyclopentyladenosine]
